Where “and” joins values, the source holds several entries; their conditions need not be identical. Equal entries are not always repeated.
How the values were obtained:
[1] = Serum CBZ concentration in CBZ-treated rats (competitive avidin assay vs HPLC with UV detection); type: in vivo; details: rat serum, 3.75 g CBZ/kg diet for 68 days, Serum #1-#3
Protocol: Biotinylated bovine serum albumin (BSA) was synthesized by mixing 50 mL of 10 g/L BSA in ice-cold 0.1 mol/L NaHCO3 (pH 7.5) with 5 mL of a 12 g/L N-hydroxysuccinimide ester (NHS-biotin) in dimethyl sulfoxide overnight at 4° C. The mixture was dialyzed for 48 h with gentle stirring at 4° C.
A flat bottom 96-well microtiter plate (Nunc Maxisorp, Fisher Scientific, Pittsburgh, Pa.) was coated with 200 μL of a 1:2 dilution of biotinylated BSA in coating buffer (50 mmol/L bicarbonate, pH 9.0) and incubated at 4° C. for at least 1 h (up to 48 h).
A 10 g/L stock of CBZ was made by dissolving CBZ in methanol and then this was diluted 1:2 in Hepes buffer (0.1 mol/L Hepes, 1 mol/L NaCl, pH 7.0) to make a concentration of 5 g/L. 5 μL of this stock was diluted in 295 μL serum (collected immediately after a rat had been killed by exsanguination and whole blood was allowed to clot 10 min before centrifugation at 10,000× g for 10 min, and serum recovered). […]
The coated flat bottom plate was washed three times with 0.05% (v/v) tween-20 and before the wells dried out, 100 μL of the contents of the U-bottom plate were added to the flat bottom plate and incubated for 45 min—up to 4 h. […] After 45 min, 50 μL of 2 mol/L H2SO4 was added to the wells and the absorbance was measured at 490-650 nm in a plate reader spectrophotometer (Molecular Devices, Sunnyvale, Calif.). […]

avidin = molecular target: T1, avidin (Gallus gallus, UniProt P02701); assay: HABA assay: displacement of HABA from avidin; type: binding
T1 construct: purchased Pierce Chemical Company
T1 sequence (P02701 25-152): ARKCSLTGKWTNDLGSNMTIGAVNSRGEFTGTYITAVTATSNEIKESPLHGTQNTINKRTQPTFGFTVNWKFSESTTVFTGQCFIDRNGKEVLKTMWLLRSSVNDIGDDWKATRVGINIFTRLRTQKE
Protocol: In order to determine whether CBZ can bind to avidin, a solution of 10 mg/L CBZ dissolved in methanol was used in a HABA assay (Pierce Chemical Company, Pittsburgh, Pa.). When [2-(4′-hydroxyazobenzene) benzoic acid (HABA) is added in excess of avidin (Pierce Chemical Company, Pittsburgh, Pa.), an absorption at 500 nm is observed and a change in color occurs from yellow to red. This absorption is decreased proportionately when biotin is added since biotin displaces the HABA dye due to its higher affinity for avidin. The assay can be performed in a single cuvette by noting the A500 of the avidin-HABA solution before and after addition of the biotin-containing sample; the change in absorbance can then be related to the amount of biotin in the sample by using the extinction coefficient of the complex.
This change in absorbance is equivalent to 0.17 μmoles biotin-competing capacity of CBZ/ml reaction mixture. This amount was present according to a calculation equation described by the manufacturer.

[2] = humans, serum concentration; cited from earlier work

serum CBZ concentration, HPLC ([1]; HPLC with UV detection): 4.7 mg/L and 3.3 mg/L
serum CBZ concentration, Competitive Assay ([1]; avidin-HRP/biotinylated BSA competitive assay): 4.8 mg/L and 3.8 mg/L and 3.0 mg/L
change in absorbance at 500 nm (avidin; 10 mg/L CBZ in methanol added to avidin-HABA solution): 0.5633
biotin-competing capacity of CBZ/ml reaction mixture (avidin; calculated from change in absorbance by manufacturer's equation, 10 mg/L CBZ): 0.17 µmol
SMILES: NC(=O)N1c2ccccc2C=Cc2ccccc21 [CBZ, 5-carbamoyl-5H-dibenz[b,f]azepine]
binding to avidin relative to HABA (avidin; HABA displacement): binds more tightly to avidin than does HABA
therapeutic range [2]: 4 to 12 mg/L
